Here are results for ten molecules from ChEMBL document CHEMBL1201862, “PubChem BioAssay data set” (2004).

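Cultured in 96-well plates, cells were exposed to test compound for 48 hours across five concentrations. GI50 = concentration required for 50% inhibition of growth.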 Calls of active or inactive are those of the source. No stated cut-off is given here; in the data, active = GI50 up to about 1.1 µM and inactive = higher.

Test systems include MDA-N; SF-539; PC-3; CCRF-CEM; NCI-H460; UACC-62; A498; OVCAR-8; SK-MEL-5; MCF7; OVCAR-3; MOLT-4; HT-29; M14; KM12; SN12C; COLO 205; RXF 393; SR.
Common to all, as to test: DTP human tumour cell line panel, 48 h

For orientation: GI50 means the concentration that inhibits growth by half.

For `CN(C)CCOc1ccc2c(c1)C/C(=C/c1ncc([N+](=O)[O-])n1C)C2=O`, the GI50 in the test with MDA-N was 3.94 µM (inactive); with SF-539 it was 3.97 µM (inactive); with PC-3, 3.4 µM (inactive); in the test on CCRF-CEM, 2.7 µM (inactive); in the test on NCI-H460, 0.508 µM (active); in the test on UACC-62 it was 1.95 µM (inactive). Also, the GI50 in the test with A498 was 2.23 µM (inactive); in the test on OVCAR-8, 1.43 µM (inactive); in the test on SK-MEL-5, 1.64 µM (inactive); with MCF7, 0.703 µM (active); with OVCAR-3, 2.11 µM (inactive); in the test on MOLT-4, 1.21 µM (inactive). Besides, the GI50 with HT-29 was 1.35 µM (inactive); with M14, 2.29 µM (inactive); in the test on KM12 it was 2.61 µM (inactive); with SN12C it was 2.58 µM (inactive); in the test with COLO 205, 1.56 µM (inactive); in the test with RXF 393, 1.17 µM (inactive). The GI50 with SR is 0.242 µM (active).
In the case of `CC(=O)c1c(C(F)(F)F)[n+]([O-])c2cc(Cl)c(Cl)cc2[n+]1[O-]`, the GI50 in the test on MDA-N is 1.12 µM (inactive); with SF-539, 1.15 µM (inactive); with PC-3, 1.31 µM (inactive); in the test on CCRF-CEM, 0.146 µM (active); in the test with NCI-H460, 0.242 µM (active); in the test on UACC-62 it was 1.26 µM (inactive). Moreover, the GI50 with A498 was 1.15 µM (inactive); with OVCAR-8 it was 0.531 µM (active); in the test on SK-MEL-5 it was 0.796 µM (active); in the test on MCF7 it was 0.265 µM (active); in the test with OVCAR-3, 1.36 µM (inactive); in the test with MOLT-4, 0.0798 µM (active). The GI50 in the test with HT-29 was 0.792 µM (active); in the test with M14 it was 1.21 µM (inactive); in the test with KM12, 0.109 µM (active); in the test on SN12C, 1.12 µM (inactive); with COLO 205, 0.746 µM (active); with RXF 393, 0.895 µM (active). For the same molecule, in the test on SR, the GI50 was 0.0196 µM (active).
As for `O=C(Nc1ccccc1)OC1OC(COC(=O)c2ccccc2)C(OC(=O)c2ccccc2)C1OS(=O)(=O)c1ccc([N+](=O)[O-])cc1` (stereo not given), the GI50 with MDA-N, in the test on SF-539, in the test on PC-3, with CCRF-CEM, in the test on NCI-H460 and in the test with UACC-62 was > 100 µM (inactive) in each case. The GI50 in the test on A498 was > 100 µM (inactive); with OVCAR-8, > 100 µM (inactive); in the test with SK-MEL-5, > 100 µM (inactive); with MCF7, > 100 µM (inactive); in the test on OVCAR-3 it was 74.6 µM (inactive); in the test with MOLT-4, > 100 µM (inactive). The GI50 in the test on HT-29, in the test with M14, with KM12, in the test on SN12C, in the test with COLO 205 and in the test with RXF 393 was > 100 µM (inactive) each time. Further, in the test on SR, the GI50 was > 100 µM (inactive).
With `O=C1C(Cl)=C(OCCCCl)C(=O)c2c(O)ccc(O)c21`, the GI50 with MDA-N is 1.52 µM (inactive); in the test on SF-539 it was 3.01 µM (inactive); in the test on PC-3, 3.99 µM (inactive); in the test on CCRF-CEM, 0.0316 µM (active); in the test with NCI-H460, 6.61 µM (inactive); in the test with UACC-62, 1.77 µM (inactive). In addition, the GI50 was 15.2 µM (inactive) with A498; 7.06 µM (inactive) with OVCAR-8; 1.73 µM (inactive) in the test with SK-MEL-5; 1.55 µM (inactive) with MCF7; 2.42 µM (inactive) with OVCAR-3; 0.189 µM (active) in the test with MOLT-4. Further, the GI50 with HT-29 is 2.03 µM (inactive); with M14, 1.43 µM (inactive); in the test with KM12 it was 13.1 µM (inactive); in the test with SN12C it was 2.26 µM (inactive); in the test on COLO 205 it was 1.53 µM (inactive); with RXF 393, 2.28 µM (inactive). Also, the GI50 with SR was 0.0836 µM (active).
In the case of `COC(=O)c1ccc([N+](=O)[O-])c(O)c1`, the GI50 in the test on MDA-N, in the test on SF-539, with PC-3, in the test with CCRF-CEM, in the test with NCI-H460 and in the test on UACC-62 was > 100 µM (inactive) each time. For the same molecule, the GI50 with A498, with OVCAR-8, in the test with SK-MEL-5, with MCF7, in the test with OVCAR-3 and with MOLT-4 was > 100 µM (inactive) throughout. Further, the GI50 in the test on HT-29, in the test on M14, in the test on KM12, in the test with SN12C, in the test on COLO 205 and with RXF 393 was > 100 µM (inactive) in each case. Also, the GI50 with SR was > 100 µM (inactive).
`CCOc1cc(-c2nc3ccccn3c2/N=C/c2cc([N+](=O)[O-])cc([N+](=O)[O-])c2O)ccc1O`: the GI50 in the test with MDA-N is > 100 µM (inactive); in the test with SF-539 it was > 100 µM (inactive); in the test with PC-3 it was > 100 µM (inactive); in the test on CCRF-CEM, 45 µM (inactive); in the test with NCI-H460, > 100 µM (inactive); in the test with UACC-62, > 100 µM (inactive). Further, the GI50 in the test on A498, in the test on OVCAR-8, in the test on SK-MEL-5, in the test on MCF7, in the test on OVCAR-3 and with MOLT-4 was > 100 µM (inactive) each time. Further, the GI50 with HT-29, in the test on M14, with KM12, in the test on SN12C, with COLO 205 and with RXF 393 was > 100 µM (inactive) in each case. Further, the GI50 in the test with SR is > 100 µM (inactive).
For the molecule `O=C1/C(=C/c2cccnc2)C(n2cccc2)c2c(Br)sc(Br)c21` (stereo not given), the GI50 in the test on MDA-N is 2.05 µM (inactive); in the test on SF-539 it was 4.26 µM (inactive); in the test on PC-3, 2.14 µM (inactive); in the test on CCRF-CEM, 1.93 µM (inactive); in the test with NCI-H460, 4.16 µM (inactive); in the test on UACC-62, 2 µM (inactive). The GI50 is 16.6 µM (inactive) in the test with A498; 2.1 µM (inactive) with OVCAR-8; 7.18 µM (inactive) in the test with SK-MEL-5; 1.8 µM (inactive) in the test with MCF7; 1.92 µM (inactive) in the test on OVCAR-3; 2.19 µM (inactive) in the test with MOLT-4. In addition, the GI50 is 2.79 µM (inactive) with HT-29; 2.15 µM (inactive) in the test on M14; 3.43 µM (inactive) in the test with KM12; 3.94 µM (inactive) in the test with SN12C; 6.64 µM (inactive) in the test with COLO 205; 2.4 µM (inactive) in the test on RXF 393. Moreover, the GI50 in the test with SR was 1.81 µM (inactive).
`CC(=O)OCC1OC(n2c(S)nc(-c3ccccc3)c(C#N)c2=O)C(OC(C)=O)C(OC(C)=O)C1OC(C)=O` (stereo not given): the GI50 in the test with MDA-N, with SF-539, in the test with PC-3, with CCRF-CEM, in the test on NCI-H460 and in the test with UACC-62 was > 100 µM (inactive) throughout. For the same molecule, the GI50 with A498, in the test with OVCAR-8, in the test on SK-MEL-5, in the test with MCF7, with OVCAR-3 and in the test on MOLT-4 was > 100 µM (inactive) throughout. Also, the GI50 in the test on HT-29, in the test on M14, in the test with KM12, in the test with SN12C, in the test on COLO 205 and in the test on RXF 393 was > 100 µM (inactive) each time. Besides, in the test with SR, the GI50 was > 100 µM (inactive).
For `CN(C)CCOc1ccc(-c2c(Oc3ccc(Cl)cc3)c(=O)oc3ccccc23)cc1`, the GI50 in the test with MDA-N was 2.61 µM (inactive); with SF-539 it was 9.84 µM (inactive); with PC-3, 6.64 µM (inactive); in the test with CCRF-CEM, 4.41 µM (inactive); with NCI-H460 it was 7.35 µM (inactive); in the test with UACC-62, 4.97 µM (inactive). Moreover, the GI50 in the test on A498 was 19.4 µM (inactive); in the test on OVCAR-8, > 24.5 µM (inactive); in the test with SK-MEL-5 it was 2.01 µM (inactive); in the test with MCF7, 4.41 µM (inactive); in the test on OVCAR-3 it was 12.4 µM (inactive); with MOLT-4, 5.47 µM (inactive). For the same molecule, the GI50 was > 20.5 µM (inactive) in the test on HT-29; 2.21 µM (inactive) with M14; 9.57 µM (inactive) in the test with KM12; 13.7 µM (inactive) in the test on SN12C; 3.61 µM (inactive) with COLO 205; 8.09 µM (inactive) in the test on RXF 393. For the same molecule, the GI50 with SR was 4.09 µM (inactive).
Turning to `O=C(O)C1C2C=CC(O2)C1C(=O)NCc1ccccn1` (stereo not given), the GI50 in the test on MDA-N, with SF-539, in the test with PC-3, with CCRF-CEM, with NCI-H460 and with UACC-62 was > 100 µM (inactive) in each case. For the same molecule, the GI50 with A498, in the test on OVCAR-8, in the test with SK-MEL-5, with MCF7, in the test with OVCAR-3 and in the test on MOLT-4 was > 100 µM (inactive) each time. Moreover, the GI50 in the test with HT-29 is > 100 µM (inactive); in the test on M14, > 100 µM (inactive); with KM12 it was > 100 µM (inactive); in the test with SN12C, > 100 µM (inactive); in the test with COLO 205, > 100 µM (inactive); with RXF 393, 44.5 µM (inactive). Further, in the test with SR, the GI50 is > 100 µM (inactive).
